Patent publication US20050042316A1, “Attractants for moths” (priority 2001, published 2005)

Experiments:
H. armigera moths = test: two-choice olfactometer, moths entering the test chamber; assay type: in vivo, Helicoverpa armigera; settings: for attractiveness in the olfactometer: blend complexity studies, FIG. 8; for optimum concentration in the olfactometer: formulated in Sirene base, FIG. 6
Excerpt: The design of our olfactometer (FIG. 1) has been described by Gregg et al. (1998) and is similar to that of Beerwinkle et al. (1996). The olfactometer is a two-choice system in which moths choose between two airstreams. One carries either a bouquet (about 200 g) of freshly cut plant stems with their bases in a flask of water, or plant volatiles formulated and presented as described below (the test chamber). The other carries clean air (the control chamber). Each run normally uses 50 moths, and runs are normally replicated three times for each sex and each attractant. Thus, olfactometer data points are usually each based on the responses of 150 moths. Moths are laboratory-reared, unmated and aged 1-4 (usually 2-3) days. We use two criteria for attractiveness, the test % (percentage of the total 150 moths which enter the test chamber), and success rate (number entering the test chamber relative to those entering the control chamber). The former is our primary criterion, and is the one presented here. Data are analysed using Zar's procedure for multiple comparison of proportions. With N=150, the minimum significant difference between two percentages using-this procedure is about 8%.
For testing single chemicals in the olfactometer early in the project, we dissolve the synthetic chemical in canola oil at a concentration of 10%. 200 μl of this is absorbed into a cotton dental wick which is placed in the test airstream of the olfactometer. These lures are changed every 2 h during olfactometer runs. Later tests of single chemicals to determine the effects of varying concentration are done using Sirene formulations, as discussed below.
For testing chemical blends in the olfactometer and in field trapping experiments, we are formulating in Sirene, a mixture of anti-oxidants and UV protectants which was developed by Novartis for attract-and-kill of several moth species using pheromones, and for which IPM Technologies Ltd have worldwide marketing and development rights. Chemicals are mixed into Sirene in the barrel of a syringe using a slow (4 rpm) broad-bladed propeller, which stirs the highly viscous material for 3 h. Formulations are then stored at 40 C in the sealed syringe for periods of up to 2 weeks. Sirene formulations are tested in the olfactometer by placing about 100 mg on a horizontal square (1×1 cm) of plastic (Corflute®), which is then placed on a pin in the test airstream of the olfactometer. For field testing, the plastic square carrying the formulation is held horizontally under the lid of the AgriSense trap, in the same position that a pheromone lure would be, using a screw.

moths = test: laboratory feeding studies with ingestible formulations; assay type: in vivo; settings: 1% toxicant in ingestible formulations
Method: To determine whether moths will feed on the ingestible formulations, and whether they die as a result, we place a single moth in a 1 litre plastic container which has 50 μl of the formulation as a single droplet in a beer bottle cap, on the bottom of the container. In some experiments laboratory-reared moths are used in a constant 25° C. reverse-cycle system. In others natural cycle laboratory moths are used in containers placed outdoors. Moths are observed at regular intervals and dead ones removed for dissection. At the end of the scotophase all surviving moths are removed and after a further hour are dissected.
In these studies small droplets (50-100 μl) were placed in a 1 litre container with the moths, so they spent the night in close proximity (within 10 cm) of the droplet.

Helicoverpa spp. = test: field trapping trials with AgriSense traps; assay type: in vivo; settings: for Peak catch % of phero / Whole experiment Lure N: Downs
Excerpt: For field tests of the attractiveness of different blends we use AgriSense pheromone traps of the canister type (Gregg and Wilson 1991). Traps are usually cleared three times weekly, and the catch sorted. Moths are sexed and the females dissected to determine mated status. We normally test 5 formulations at a time, replicated 4 times, so there are 4 rows of 5 traps, each row containing one replicate of each formulation. Traps are spaced 50 m apart and are rotated, within a row, between catch intervals. Experiments are analysed as Latin squares. Field trials at Cecil Plains were conducted in soybeans, cotton, chickpea, wheat, fallow land and sunflower, and at Kununurra and China, in cotton.
These trials have been done at different times, and in different areas, different crops and different weather conditions. In some cases the conditions have been less than optimal. Examples include the Twynam 1, 2 and 3 trials in the Ord River, where night temperatures were often too low for moth activity, and the last two Wamara trials in 2000 where moth numbers in the district were extremely low. Because of these differences it is not possible to directly compare the numbers of moths caught between trials. We have therefore expressed the results as a percentage of the pheromone traps run in the same experiments. This percentage has been calculated on the catch interval with the highest volatile catches. We do this because the residual life of some volatiles is short and some formulations probably lose attractiveness during the course of the trials, whereas the pheromone release rate remains relatively constant. PBE1 was also included in almost all of these trials, as a standard plant volatile blend. The unweighted average catch of PBE1, across all trials, was 5.8% of the pheromone catch. Though PBE1 and some other volatile formulations occasionally caught up to 15-33% of the corresponding pheromone catch, when this occurred the overall numbers of moths were low, so the results are statistically unreliable.

Lab reared female moths = test: field wind tunnel trials; assay type: in vivo; settings: trial 8, Yanco, 0.5% methomyl
Method: These are used to observe behavioural responses of moths around lures, and to record kill rates of different blends and formulations, in semi-natural conditions. Clear polythene is stretched around a series of steel hoops 1.2 m in diameter which are suspended from a horizontal pipe Flywire is placed over each end. The wind tunnels are hung just above ground level and oriented parallel to the prevailing wind. Lures (3 bottle tops containing 100-200 μl of the attractant under test) are placed on a plastic dinner plate in the upwind end and 20-50 moths are released into the downwind end about 1 h before sunset. Lab reared female moths produced under natural photoperiod are used. Behavioural responses are observed using night vision glasses. In the morning both live and dead moths are collected and dissected to determine from the presence of green dye whether they have fed on the lure.

[1] = single chemicals in Sirene formulations
[2] = single chemicals, 10% in canola oil, females, FIG. 5
[3] = Wamara3 Soybean, 20 Feb-12 Mar 99

OCCc1ccccc1 [2-phenylethanol]
test % (H. armigera moths; 2% concentration in Sirene): 26.4% | attractiveness in the olfactometer (H. armigera moths): significantly attractive | test % (H. armigera moths; in canola oil): 29% | attraction in the olfactometer (statistical significance) (H. armigera moths; [1]): confirmed | attraction in the olfactometer (statistical significance) (H. armigera moths; [2]): statistically significant levels of attraction

CC1=CCC2C(C1)C2(C)C (stereo not shown) [Blend 3-carene, 3-carene]
attraction in the olfactometer (statistical significance) (H. armigera moths; [2]): statistically significant levels of attraction

CC/C=C\CCOC(C)=O [Z-3-hexenyl acetate]
attraction in the olfactometer (statistical significance) (H. armigera moths; [2]): statistically significant levels of attraction

CC/C=C\CCOC(=O)c1ccccc1O [Z-3-hexenyl salicylate]
test % (H. armigera moths; 2% concentration in Sirene): 26.7% | attractiveness in the olfactometer (H. armigera moths): significantly attractive on its own | test % (H. armigera moths; in canola oil): 33.8% | attraction in the olfactometer (statistical significance) (H. armigera moths; [1]): confirmed | attraction in the olfactometer (statistical significance) (H. armigera moths; [2]): statistically significant levels of attraction

OCc1ccccc1 [benzyl alcohol]
optimum concentration in the olfactometer (H. armigera moths): about 1% | attraction in the olfactometer (statistical significance) (H. armigera moths; [1]): confirmed | attraction in the olfactometer (statistical significance) (H. armigera moths; [2]): statistically significant levels of attraction

CNC(=O)Oc1cccc2ccccc12 [carbaryl]
% killed, summary of trials (moths): 69-94%

CC(C)=CCC/C(C)=C/CO [geraniol]
attraction in the olfactometer (statistical significance) (H. armigera moths; [2]): statistically significant levels of attraction

C=C(C)[C@H]1CC=C(C)CC1 [limonene]
attractiveness in the olfactometer (H. armigera moths): statistically significant | attraction in the olfactometer (statistical significance) (H. armigera moths; [2]): statistically significant levels of attraction

CNC(=O)ON=C(C)SC [methomyl]
% killed, summary of trials (moths): killed all moths

C=CCc1ccc(OC)c(OC)c1 [methyl eugenol]
optimum concentration in the olfactometer (H. armigera moths): about 2%

O=CCc1ccccc1 [phenylacetaldehyde]
attractiveness in the olfactometer (H. armigera moths): significantly attractive | optimum concentration in the olfactometer (H. armigera moths): about 1% | attraction in the olfactometer (statistical significance) (H. armigera moths; [1]): confirmed | attraction in the olfactometer (statistical significance) (H. armigera moths; [2]): statistically significant levels of attraction | Peak catch % of phero (Helicoverpa spp.; Wamara1Soybean, 1-30 Jan 99): 0.4% | Whole experiment Lure N (Helicoverpa spp.; Wamara1Soybean, 1-30 Jan 99): 10 | Peak catch % of phero (Helicoverpa spp.; Wamara2 Soybean, 13-19 Feb 99): 1.1% | Whole experiment Lure N (Helicoverpa spp.; Wamara2 Soybean, 13-19 Feb 99): 5 | Peak catch % of phero (Helicoverpa spp.; [3]): 3.1% | Whole experiment Lure N (Helicoverpa spp.; [3]): 8 | catch in field traps, in words (Helicoverpa spp.; field trapping trials): caught very few moths | catch relative to the PBE1 catch (Helicoverpa spp.; third direct comparison with PBE1): less than a quarter | % killed (Lab reared female moths; attractant at 2%): 33.3 b % | N killed (Lab reared female moths; attractant at 2%): 14 | % killed (Lab reared female moths; attractant at 8%): 25.6 b % | N killed (Lab reared female moths; attractant at 8%): 11
